Measured values taken from PMC3832525, “A Cell-Free Fluorometric High-Throughput Screen for Inhibitors of Rtt109-Catalyzed Histone Acetylation” (PLoS ONE, 2013).
pIC50: −log10 of the molar value.

Assays:
Rtt109-Vps75 complex = target: T1, Rtt109-Vps75 complex (Saccharomyces cerevisiae, UniProt Q07794); assay: CPM-based fluorometric Rtt109-Vps75 HTS / dose-response assay; format: biochemical, S. cerevisiae
T1 construct: using two full-length physiologically relevant protein complexes; made in house
T1 sequence (Q07794 1-436): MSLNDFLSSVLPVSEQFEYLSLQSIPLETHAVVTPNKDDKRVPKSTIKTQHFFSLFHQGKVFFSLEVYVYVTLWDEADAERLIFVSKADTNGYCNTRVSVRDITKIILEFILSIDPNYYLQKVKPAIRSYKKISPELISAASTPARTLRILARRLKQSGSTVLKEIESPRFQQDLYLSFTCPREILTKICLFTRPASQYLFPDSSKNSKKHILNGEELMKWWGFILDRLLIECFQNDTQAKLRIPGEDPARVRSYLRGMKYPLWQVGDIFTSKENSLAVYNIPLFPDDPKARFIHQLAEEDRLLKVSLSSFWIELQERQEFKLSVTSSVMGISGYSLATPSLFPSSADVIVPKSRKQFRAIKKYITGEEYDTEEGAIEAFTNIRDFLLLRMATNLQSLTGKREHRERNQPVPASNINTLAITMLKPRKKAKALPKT
T1 sequence (P53853 1-264 partner): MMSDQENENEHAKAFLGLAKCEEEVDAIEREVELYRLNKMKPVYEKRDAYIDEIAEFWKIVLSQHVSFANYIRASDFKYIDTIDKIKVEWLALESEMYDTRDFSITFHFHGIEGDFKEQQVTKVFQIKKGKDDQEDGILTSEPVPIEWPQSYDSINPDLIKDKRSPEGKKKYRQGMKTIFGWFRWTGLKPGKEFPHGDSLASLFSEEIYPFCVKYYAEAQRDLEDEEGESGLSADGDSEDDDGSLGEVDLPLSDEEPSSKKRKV
Protocol: (§1) Compounds selected for dose-response analyses were tested in duplicate at eight compound concentrations, ranging from 40 nM to 125 µM final compound concentrations. Plate controls, dispensing steps and general assay procedures were unchanged from the aforementioned HTS procedures. Slot blots were performed using standard techniques with a Bio-Rad Bio-Dot SF microfiltration apparatus. Membranes were imaged with a LI-COR Odyssey and analyzed using Image Studio (LI-COR Biosciences). For the slot blot experiments, the assay plates included an additional plate control consisting of the Rtt109-Vps75 and Asf1-dH3-H4 complexes and no acetyl-CoA. Dose-response and slot blot experiments were replicated at least three times by independent experiments.

Rtt109 = system: Rtt109; set-up: method as in PMID 18568037; settings: ref [11]; cited from earlier work
[1] = target: T2, Rtt109-catalyzed histone acetylation (H3K56ac, H3K27ac, H3K9ac) (Saccharomyces cerevisiae, UniProt Q07794); assay: Orthogonal antibody-based slot blot assay of histone acetylation; format: biochemical, S. cerevisiae; settings: reaction aliquots
T2 construct: using two full-length physiologically relevant protein complexes; made in house
T2 sequence (Q07794 1-436): T1 sequence (Q07794 1-436)
T2 sequence (P53853 1-264 partner): T1 sequence (P53853 1-264 partner)
Protocol: as §1
This method utilizes modification-specific antibodies to detect changes in the actual histone acetylation, rather than the CoA by-product. […] Equal protein content was verified by Ponceau S staining (Figure 5B).

PCAF = settings: ref [69], [70]; cited from earlier work
β-lactamase = settings: 10 µM
p300 = settings: ref [69], [70]; cited from earlier work

O=C(O)C1=CC(=C(c2ccc(O)c(C(=O)O)c2)c2ccc(O)c(C(=O)O)c2)C=CC1=O [ATA, aurintricarboxylic acid]
signal reduction in HTS compound control wells (Rtt109-Vps75 complex; 10 µM final concentration): 50%

CC(=O)N[C@@H](CCCCNC(=O)CSCCNC(=O)CCNC(=O)[C@H](O)C(C)(C)COP(=O)(O)OP(=O)(O)OC[C@H]1O[C@@H](n2cnc3c(N)ncnc32)[C@H](O)[C@@H]1OP(=O)(O)O)C(N)=O [Lys-CoA]
activity versus Rtt109 (Rtt109): have not shown activity

OC(Cn1cncn1)(Cn1cncn1)c1ccc(F)cc1F [fluconazole]
histone acetylation by slot blot [1]: did not show any measureable decrease | activity against Rtt109-catalyzed histone acetylation in the CPM-based assay (Rtt109-Vps75 complex; dose-response, negative compound control): but not fluconazole, showed modest activity

C=C(C)[C@@H](CC=C(C)C)C[C@@]12C[C@@H](CC=C(C)C)C(C)(C)[C@@](CC=C(C)C)(C(=O)C(C(=O)c3ccc(O)c(O)c3)=C1O)C2=O [garcinol]
pIC50 (PCAF): […] | H3K9ac by slot blot ([1]; modification-specific antibody): dose-dependent decreases | H3K27ac by slot blot ([1]; modification-specific antibody): dose-dependent decreases | H3K56ac by slot blot ([1]; modification-specific antibody): dose-dependent decreases | inhibition of β-lactamase activity, detergent present (β-lactamase; 0.01% Triton X-100): no such inhibition was observed | inhibition of β-lactamase activity, detergent-free (β-lactamase; absence of detergent): only modest inhibition | pIC50 (p300): 5.15
